Laboratory results taken from patent publication US10933056B2, “3-(1H-pyrazol-4-yl)pyridine allosteric modulators of the M4 muscarinic acetylcholine receptor” (Merck Sharp & Dohme Corp., priority 2015, dated 2021).

Target: T1, human M4 muscarinic acetylcholine receptor (Homo sapiens, UniProt P08173)
T1 construct: expressed in transfected cells; host or cells: CHO-K1
T1 sequence (P08173 1-479): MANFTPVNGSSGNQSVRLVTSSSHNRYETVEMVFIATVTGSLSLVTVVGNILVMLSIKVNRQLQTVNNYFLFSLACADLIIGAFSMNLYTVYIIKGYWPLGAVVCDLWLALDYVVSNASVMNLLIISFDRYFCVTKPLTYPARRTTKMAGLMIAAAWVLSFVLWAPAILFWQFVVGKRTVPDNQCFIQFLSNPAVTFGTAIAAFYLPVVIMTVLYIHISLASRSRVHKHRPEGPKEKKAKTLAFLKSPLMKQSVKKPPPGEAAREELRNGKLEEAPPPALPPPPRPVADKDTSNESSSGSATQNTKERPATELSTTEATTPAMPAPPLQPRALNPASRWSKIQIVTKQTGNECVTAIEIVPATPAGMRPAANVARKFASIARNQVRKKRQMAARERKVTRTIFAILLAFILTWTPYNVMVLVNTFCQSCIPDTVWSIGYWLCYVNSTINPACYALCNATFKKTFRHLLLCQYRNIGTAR
Test: human FLIPR-based M4 PAM assay (calcium mobilization in CHO-K1 cells with human M4 receptor and Gαqi5)
Format: cell-based
Settings: inflection point of dose response curve, acetylcholine at 20% of maximum response, FLIPR Tetra, read-out: M4 PAM IP
Method in brief: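 CHO-K1 cells stably expressing human M4 and chimeric Gαqi5 were dye-loaded ~1 h at 37° C. Test compound was added with fluorescence recorded 4 min, then acetylcholine at EC20 (sometimes a further EC70 addition) with reading 3.5 min. Value is the inflection point of a 4-parameter logistic fit.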

SMILES	EC50
CC#CCN1Cc2ncc(-c3nc4c(cc3-c3cnn(CC5(C)CCCC5)c3)CCC4)cc2C1=O [Example 119, 6-(but-2-yn-1-yl)-3-(3-(1-((1-methylcyclopentyl)methyl)-1H-pyrazol-4-yl)-6,7-dihydro-5H-cyclopenta[b]pyridin-2-yl)-6,7-dihydro-5H-pyrrolo[3,4-b]pyridin-5-one]	71 nM
CC(C)N1Cc2ncc(-c3nc(C#N)ccc3-c3cnn(CC4(C)CCCC4)c3)cc2C1=O [Example 121, 6-(6-isopropyl-5-oxo-6,7-dihydro-5H-pyrrolo[3,4-b]pyridin-3-yl)-5-(1-((1-methylcyclopentyl)methyl)-1H-pyrazol-4-yl)picolinonitrile]	134 nM
CC#CCN1Cc2ncc(-c3nc(C#N)ccc3-c3cnn(CC4(C)CCCC4)c3)cc2C1=O [Example 122, 6-(6-(but-2-yn-1-yl)-5-oxo-6,7-dihydro-5H-pyrrolo[3,4-b]pyridin-3-yl)-5-(1-((1-methylcyclopentyl)methyl)-1H-pyrazol-4-yl)picolinonitrile]	41 nM
CN1Cc2ccc(-c3nc4c(cc3-c3cnn(CC5(C)CCCC5)c3)CCC4=O)cc2C1=O [Example 124, 2-(2-Methyl-3-oxoisoindolin-5-yl)-3-(1-((1-methylcyclopentyl)methyl)-1H-pyrazol-4-yl)-5,6-dihydro-7H-cyclopenta[b]pyridin-7-one]	30 nM
CC1(Cn2cc(-c3ccc(C#N)nc3-c3cnc4c(c3)C(=O)N(CCO)C4)cn2)CCCC1 [Example 129, 6-(6-(2-Hydroxyethyl)-5-oxo-6,7-dihydro-5H-pyrrolo[3,4-b]pyridin-3-yl)-5-(1-((1-methylcyclopentyl)methyl)-1H-pyrazol-4-yl)picolinonitrile]	39 nM

The remaining compounds from weak to strong by EC50, led by results:

EC50	SMILES
90 nM	CN1Cc2ccc(-c3nc(F)c(F)cc3-c3cnn(CC4(C)CCCC4)c3)cc2C1=O [Example 127, 6-(5,6-Difluoro-3-(1-((1-methylcyclopentyl)methyl)-1H-pyrazol-4-yl)pyridin-2-yl)-2-methylisoindolin-1-one]
71 nM	Cc1cc(F)c(-c2cnn(CC3(C)CCCC3)c2)c(-c2ccc3c(c2)C(=O)N(C)C3)n1 [Example 126, 6-(4-fluoro-6-methyl-3-(1-((1-methylcyclopentyl)methyl)-1H-pyrazol-4-yl)pyridin-2-yl)-2-methylisoindolin-1-one]
62 nM	C#Cc1ccc(-c2cnn(CC3(C)CCCC3)c2)c(-c2cnc3c(c2)C(=O)N(CC2CC2)C3)n1 [Example 128, 6-(Cyclopropylmethyl)-3-(6-ethynyl-3-(1-((1-methylcyclopentyl)methyl)-1H-pyrazol-4-yl)pyridin-2-yl)-6,7-dihydro-5H-pyrrolo[3,4-b]pyridin-5-one]
48 nM	C#CCN1Cc2ccc(-c3nc4c(cc3-c3cnn(CC5(C)CCCC5)c3)CCC4)cc2C1=O [Example 123, 6-(3-(1-((1-methylcyclopentyl)methyl)-1H-pyrazol-4-yl)-6,7-dihydro-5H-cyclopenta[b]pyridin-2-yl)-2-(prop-2-yn-1-yl)isoindolin-1-one]
26 nM	C#CCN1Cc2ncc(-c3nc(C#N)ccc3-c3cnn(CC4(C)CCCC4)c3)cc2C1=O [Example 120, 5-(1-((1-methylcyclopentyl)methyl)-1H-pyrazol-4-yl)-6-(5-oxo-6-(prop-2-yn-1-yl)-6,7-dihydro-5H-pyrrolo[3,4-b]pyridin-3-yl)picolinonitrile]
26 nM	CN1Cc2ccc(-c3nc(C#N)c(Cl)cc3-c3cnn(CC4(C)CCCC4)c3)cc2C1=O [Example 125, 3-Chloro-6-(2-methyl-3-oxoisoindolin-5-yl)-5-(1-((1-methylcyclopentyl)methyl)-1H-pyrazol-4-yl)picolinonitrile]
17 nM	C#CCN1Cc2ccc(-c3nc(C#N)ccc3-c3cnn(CC4(C)CCCC4)c3)cc2C1=O [Example 120A]
